In this assay the target is T1, BTK (Homo sapiens, UniProt Q06187).
T1 construct: The GM01501.3 cell line endogenously expresses BTK with a HiBiT fusion tag via CRISPR knock-in at its C-terminal region; endogenous in cells; host or cells: GM01501.3 (GM01501 cells engineered by CRISPR knock-in of HiBiT at the BTK locus)
The assay can be described thus: BTK degradation assay using the HiBiT Method (Nano-Glo HiBiT Lytic Assay, GM01501.3 cells). The class given is cell-based. The note with it: HiBiT Degradation on GM01501.3 BTK @ 6 hours. As to the method: Selected compounds were tested in a BTK degradation assay using the HiBiT Method. Park Memorial Institute (RPM1) 1640 Medium with phenol red, L-Glutamine, Sodium Pyruvate, and fetal bovine serum (FBS) were purchased from Gibco (Grand Island, NY, USA). Nano-Glo® HiBiT Lytic Assay System was purchased from Promega (Madison, WI, USA). GM01501 cells were obtained from the NIGMS Human Genetic Cell Repository at the Coriell Institute for Medical Research. The GM01501.3 cell line endogenously expresses BTK with a HiBiT fusion tag via CRISPR knock-in at its C-terminal region. It was engineered by electroporation with the Neon Transfection System (Themo Fisher Scientific), according to manufacturer indications. Electroporation conditions: 1 pulse of 1,350 V for 30 ms for 0.5×10_6 cells. Cell culture flasks and 384-well microplates were acquired from VWR (Radnor, PA, USA). BTK degradation was evaluated by quantification of luminescent signal using Nano-Glo® HiBiT Lytic Assay kit. Test compounds were added to the 384-well plate from a top concentration of 10 μM with 11 points, half log titration in duplicates. GM01501.3 cells were added into 384-well plates at a cell density of 10,000 cells per well in a total volume of 30 μl. The plates were kept at 37° C. with 5% CO2 for 6 hours. Negative control wells included cells treated with DMSO only and positive control wells included only growing media, without Nano-Glo® HiBiT Lytic reagent. After a 6-hour incubation, Nano-Glo® HiBiT Lytic Assay reagent was added to the cells following manufacturer indications. Luminescence was acquired on EnVision™ Multilabel Reader (PerkinElmer, Santa Clara, CA, USA). […] “++++” represents a DC50 value of less than 100 nM. “+++” represents a DC50 value of 100 nM-500 nM. “++” represents a DC50 value of 500 nM-1000 nM. “+” represents a DC50 value of greater than 1000 nM.
(In general: The HiBiT peptide binds its large partner to form an active luciferase.)

We go through 17 compounds from patent US20240287076A1, “COMPOUNDS FOR TARGETING DEGRADATION OF BRUTON'S TYROSINE KINASE” (BIOGEN MA INC., priority 2021, published 2024).

Where only a bound is given, the exact number is not on record here.

T1 sequence (Q06187 whole entry, the tested form may be a part): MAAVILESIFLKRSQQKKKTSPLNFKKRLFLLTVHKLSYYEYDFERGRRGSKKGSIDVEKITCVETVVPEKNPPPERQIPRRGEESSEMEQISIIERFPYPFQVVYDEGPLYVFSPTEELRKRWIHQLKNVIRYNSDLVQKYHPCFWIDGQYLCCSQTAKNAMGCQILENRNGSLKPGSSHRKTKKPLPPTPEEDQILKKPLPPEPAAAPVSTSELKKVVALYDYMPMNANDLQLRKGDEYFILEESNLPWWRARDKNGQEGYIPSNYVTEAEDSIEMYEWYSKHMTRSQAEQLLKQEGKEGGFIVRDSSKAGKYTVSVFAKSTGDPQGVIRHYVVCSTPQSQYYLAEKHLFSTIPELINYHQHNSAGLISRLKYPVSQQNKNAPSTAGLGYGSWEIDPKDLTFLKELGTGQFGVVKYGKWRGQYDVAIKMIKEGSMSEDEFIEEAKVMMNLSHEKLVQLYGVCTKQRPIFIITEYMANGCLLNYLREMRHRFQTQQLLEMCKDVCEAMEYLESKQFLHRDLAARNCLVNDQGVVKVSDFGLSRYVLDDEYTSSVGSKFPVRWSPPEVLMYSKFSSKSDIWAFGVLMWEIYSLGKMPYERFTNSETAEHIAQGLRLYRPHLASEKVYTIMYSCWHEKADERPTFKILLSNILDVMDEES

By DC50 is commonly meant the concentration at which degradation of the target reaches its halfway point. Higher therefore signals a less potent degrader. On to `CN(CCn1ccc(NC2CCC(=O)NC2=O)n1)Cc1ccc(-c2cc3c(-c4ccc(CNC(=O)c5noc(C(C)(C)C)n5)c(F)c4)ncnn3c2)cc1F` (centres unmarked) [Example 34, 5-tert-butyl-N-[[4-[6-[4-[[2-[3-[(2,6-dioxo-3-piperidyl)amino]pyrazol-1-yl]ethyl-methyl-amino]methyl]-3-fluoro-phenyl]pyrrolo[2,1-f][1,2,4]triazin-4-yl]-2-fluoro-phenyl]methyl]-1,2,4-oxadiazole-3-carboxamide], for which the DC50 is less than 0.1 µM.
Compound `Cc1cc(-c2ncnn3cc(-c4ccc(CN5CCC(c6ccc(OC7CCC(=O)NC7=O)cc6)CC5)cc4)cc23)ccc1CNC(=O)c1noc(C(C)(C)C)n1` (centres unmarked) [Example 19, 5-tert-butyl-N-[[4-[6-[4-[[4-[4-[(2,6-dioxo-3-piperidyl)oxy]phenyl]-1-piperidyl]methyl]phenyl]pyrrolo[2,1-f][1,2,4]triazin-4-yl]-2-methyl-phenyl]methyl]-1,2,4-oxadiazole-3-carboxamide] came in with a DC50 of less than 0.1 µM.
`Cc1cc(-c2ncnn3cc(-c4ccc(OCCN5CCC(c6ccc(OC7CCC(=O)NC7=O)cc6)CC5)cc4)cc23)ccc1CNC(=O)c1noc(C(C)(C)C)n1` (centres unmarked) [Example 107, 5-tert-butyl-N-[[4-[6-[4-[2-[4-[4-[(2,6-dioxo-3-piperidyl)oxy]phenyl]-1-piperidyl]ethoxy]phenyl]pyrrolo[2,1-f][1,2,4]triazin-4-yl]-2-methyl-phenyl]methyl]-1,2,4-oxadiazole-3-carboxamide] had a DC50 of less than 0.1 µM.
In the case of `Cc1ccc(C(=O)NCc2ccc(-c3ncnn4cc(-c5ccc(CN6CCC(c7ccc(NC8CCC(=O)NC8=O)cc7)CC6)cc5)cc34)cc2C)nc1` (centres unmarked) [Example 87, N-[[4-[6-[4-[[4-[4-[(2,6-dioxo-3-piperidyl)amino]phenyl]-1-piperidyl]methyl]phenyl]pyrrolo[2,1-f][1,2,4]triazin-4-yl]-2-methyl-phenyl]methyl]-5-methyl-pyridine-2-carboxamide], the DC50 is less than 0.1 µM.
Turning to `CC(C)(C)c1nc(C(=O)NCc2ccc(-c3ncnn4cc(CCN5CCC(c6ccc(NC7CCC(=O)NC7=O)cn6)CC5)cc34)cc2F)no1` (centres unmarked) [Example 122, 5-tert-butyl-N-[[4-[6-[2-[4-[5-[(2,6-dioxo-3-piperidyl)amino]-2-pyridyl]-1-piperidyl]ethyl]pyrrolo[2,1-f][1,2,4]triazin-4-yl]-2-fluoro-phenyl]methyl]-1,2,4-oxadiazole-3-carboxamide], the DC50 was less than 0.1 µM.
`Cc1cc(-c2ncnn3cc(-c4ccc(C(=O)Nc5cccc6c5CCN(C5CCC(=O)NC5=O)C6)cc4)cc23)ccc1CNC(=O)c1noc(C(C)(C)C)n1` (centres unmarked) [Example 194, 5-(tert-butyl)-N-(4-(6-(4-((2-(2,6-dioxopiperidin-3-yl)-1,2,3,4-tetrahydroisoquinolin-5-yl)carbamoyl)phenyl)pyrrolo[2,1-f][1,2,4]triazin-4-yl)-2-methylbenzyl)-1,2,4-oxadiazole-3-carboxamide] gave a DC50 of less than 0.1 µM.
Consider `CC(C)(C)c1nc(C(=O)NCc2ccc(-c3ncnn4cc(-c5ccc(CN6CCC(c7ccc(NC8CCC(=O)NC8=O)cc7)CC6)cc5)cc34)cc2Cl)no1` (centres unmarked) [Example 48, 5-tert-butyl-N-[[2-chloro-4-[6-[4-[[4-[4-[(2,6-dioxo-3-piperidyl)amino]phenyl]-1-piperidyl]methyl]phenyl]pyrrolo[2,1-f][1,2,4]triazin-4-yl]phenyl]methyl]-1,2,4-oxadiazole-3-carboxamide], for which the DC50 was less than 0.1 µM.
`Cc1cc(-c2ncnn3cc(-c4ccc5c(c4)CN(CCCc4ccc(NC6CCC(=O)NC6=O)cc4)C5)cc23)ccc1CNC(=O)c1noc(C(C)(C)C)n1` (centres unmarked) [Example 57, 5-tert-butyl-N-[[4-[6-[2-[3-[4-[(2,6-dioxo-3-piperidyl)amino]phenyl]propyl]isoindolin-5-yl]pyrrolo[2,1-f][1,2,4]triazin-4-yl]-2-methyl-phenyl]methyl]-1,2,4-oxadiazole-3-carboxamide] had a DC50 of less than 0.1 µM.
Regarding `Cc1cc(-c2ncnn3cc(CCCCc4ccc(-c5ccc(C6CCC(=O)NC6=O)cc5)cc4)cc23)ccc1CNC(=O)c1noc(C(C)(C)C)n1` (centres unmarked) [Example 151, 5-tert-butyl-N-[[4-[6-[4-[4-[4-(2,6-dioxo-3-piperidyl)phenyl]phenyl]butyl]pyrrolo[2,1-f][1,2,4]triazin-4-yl]-2-methyl-phenyl]methyl]-1,2,4-oxadiazole-3-carboxamide], the DC50 was in the range of 0.1 to 0.5 µM.
The compound `Cc1cc(-c2ncnn3cc(-c4ccc(CN5CCC(c6ccc(NC7CCC(=O)NC7=O)cc6)CC5)cc4)cc23)ccc1CNC(=O)COCC(C)(C)C` (centres unmarked) [Example 70, 2-(2,2-dimethylpropoxy)-N-[[4-[6-[4-[[4-[4-[(2,6-dioxo-3-piperidyl)amino]phenyl]-1-piperidyl]methyl]phenyl]pyrrolo[2,1-f][1,2,4]triazin-4-yl]-2-methyl-phenyl]methyl]acetamide] displayed a DC50 of less than 0.1 µM.
The compound `Cc1cc(-c2ncnn3cc(-c4ccc5c(c4)CCN(CCc4ccc(NC6CCC(=O)NC6=O)cc4)C5)cc23)ccc1CNC(=O)c1noc(C(C)(C)C)n1` (centres unmarked) [Example 56, 5-tert-butyl-N-[[4-[6-[2-[2-[4-[(2,6-dioxo-3-piperidyl)amino]phenyl]ethyl]-3,4-dihydro-1H-isoquinolin-6-yl]pyrrolo[2,1-f][1,2,4]triazin-4-yl]-2-methyl-phenyl]methyl]-1,2,4-oxadiazole-3-carboxamide] gave a DC50 of less than 0.1 µM.
`CC(C)(C)c1nc(C(=O)NCc2ccc(-c3ncnn4cc(CCC(F)(F)CN5CCC(c6ccc(C7CCC(=O)NC7=O)cc6)CC5)cc34)cc2F)no1` (centres unmarked) [Example 169, 5-tert-butyl-N-[[4-[6-[4-[4-[4-(2,6-dioxo-3-piperidyl)phenyl]-1-piperidyl]-3,3-difluoro-butyl]pyrrolo[2,1-f][1,2,4]triazin-4-yl]-2-fluoro-phenyl]methyl]-1,2,4-oxadiazole-3-carboxamide] showed a DC50 of 0.1 to 0.5 µM.
`Cc1cc(-c2ncnn3cc(-c4ccc(CN5CCC(c6ccc(NC7CCC(=O)NC7=O)cc6)CC5)cc4)cc23)ccc1CNC(=O)c1ccc(F)cc1` (centres unmarked) [Example 64, N-[[4-[6-[4-[[4-[4-[(2,6-dioxo-3-piperidyl)amino]phenyl]-1-piperidyl]methyl]phenyl]pyrrolo[2,1-f][1,2,4]triazin-4-yl]-2-methyl-phenyl]methyl]-4-fluoro-benzamide] yielded a DC50 of less than 0.1 µM.
In turn, `Cc1cc(-c2ncnn3cc(-c4cccc(CN5CCC(c6ccc7c(N8CCC(=O)NC8=O)nn(C)c7c6)CC5)n4)cc23)ccc1CNC(=O)c1noc(C(C)(C)C)n1` [Example 248, 5-(tert-butyl)-N-(4-(6-(6-((4-(3-(2,4-dioxotetrahydropyrimidin-1(2H)-yl)-1-methyl-1H-indazol-6-yl)piperidin-1-yl)methyl)pyridin-2-yl)pyrrolo[2,1-f][1,2,4]triazin-4-yl)-2-methylbenzyl)-1,2,4-oxadiazole-3-carboxamide] returned a DC50 of less than 0.1 µM.
The result for `Cc1cc(-c2ncnn3cc(-c4ccc(C(=O)N[C@H](C)c5cccc(NC6CCC(=O)NC6=O)c5)cc4)cc23)ccc1CNC(=O)c1noc(C(C)(C)C)n1` (stereo partly drawn) [Example 199, 5-(tert-butyl)-N-(4-(6-(4-(((1R)-1-(3-((2,6-dioxopiperidin-3-yl)amino)phenyl)ethyl)carbamoyl)phenyl)pyrrolo[2,1-f] [1,2,4]triazin-4-yl)-2-methylbenzyl)-1,2,4-oxadiazole-3-carboxamide] reads less than 0.1 µM; that for `COc1cc(-c2cc3c(-c4ccc(CNC(=O)c5noc(C(C)(C)C)n5)c(C)c4)ncnn3c2)ccc1CN1CCC(c2ccc(NC3CCC(=O)NC3=O)cc2)CC1` (centres unmarked) [Example 16, 5-tert-butyl-N-[[4-[6-[4-[[4-[4-[(2,6-dioxo-3-piperidyl)amino]phenyl]-1-piperidyl]methyl]-3-methoxy-phenyl]pyrrolo[2,1-f][1,2,4]triazin-4-yl]-2-methyl-phenyl]methyl]-1,2,4-oxadiazole-3-carboxamide], less than 0.1 µM; that for `Cc1cc(-c2ncnn3cc(-c4ccc5c(c4)CN(CCc4ccc(NC6CCC(=O)NC6=O)cc4)CC5)cc23)ccc1CNC(=O)c1noc(C(C)(C)C)n1` (centres unmarked) [Example 60, 5-tert-butyl-N-[[4-[6-[2-[2-[4-[(2,6-dioxo-3-piperidyl)amino]phenyl]ethyl]-3,4-dihydro-1H-isoquinolin-7-yl]pyrrolo[2,1-f] [1,2,4]triazin-4-yl]-2-imethyl-phenyl]methyl]-1,2,4-oxadiazole-3-carboxamide], less than 0.1 µM.
